The IC50 is the midpoint of a concentration-inhibition curve.

The text below walks through data of patent US11028090B2 (Dong Wha Pharm. Co., Ltd., priority 2017, dated 2021).

Test [1] concerns acute myelogenous leukemia cells (MV-4-11 cells). The experiment in a line: Cytotoxicity to acute myelogenous leukemia cells (MV-4-11 cells), CCK-8. The settings on record: Homo sapiens, MV4-11, 72 h.
Test [2] deals with BRD4 (BD1+BD2) bromodomain (Homo sapiens (Human), UniProt O60885). The experiment in a line: BRD4 binding inhibition (AlphaScreen, GST-BRD4 vs tetraacetylated histone H4 peptide). The method in brief: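 GST-BRD4 (BD1+BD2) and biotinylated tetraacetyl-histone H4 peptide, each at 100 nM in HEPES pH 7.4 buffer with BSA and DTT, were combined with compound. Glutathione acceptor and streptavidin donor beads were added, then incubated 30 min at room temperature in the dark. Read-out was AlphaScreen signal.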

Setting [3] is: read-out: IC50, cytotoxicity against acute myelogenous leukemia cells.
[4] abbreviates: read-out: MV-4-11 Cytotoxicity IC50.
[5] abbreviates: GST-BRD4 (BD1+BD2) / biotinylated acetyl-histone H4 (Lys5,8,12,16) peptide, read-out: IC50, BRD4 binding inhibition.
[6] abbreviates: GST-BRD4 (BD1+BD2) vs biotinylated acetyl-histone H4 peptide, AlphaScreen, read-out: BRD4 IC50.

Where two headings read alike, the source gives them in different places.

Regarding `CCCOC(=O)N[C@H](C(=O)NCCCCNc1nc2cc(OC)ccc2n2c(C)nnc12)C(C)C` [Example 319, (S)-{1-[4-(7-methoxy-1-methyl-[1,2,4]triazolo[4,3-a]quinoxaline-4-ylamino)-butylcarbamoyl]-2-methyl-propyl}-carbamic acid propylester], the IC50 in test [1] (setting [3]) was at most 200 nM; in test [1] (setting [4]), 114 nM; in test [2] (setting [5]), at most 50 nM; in test [2] (setting [6]), 11 nM.
`Cc1nnc2c(NCCCCNC(=O)OC(C)(C)C)nc3ccccc3n12` [Example 1, [4-(1-methyl-[1,2,4]triazolo[4,3-a]quinoxaline-4-ylamino)-butyl]-carbamic acid-tert-butylester]: the half-maximal inhibitory concentration (IC50) in test [1] (setting [4]) came out at 980 nM; in test [2] (setting [6]), 74 nM.
As for `Cc1nnc2c(NCCCCNC(=O)OCC(C)C)nc3cc4c(cc3n12)OCCO4` [Example 189, [4-(1-methyl-8,9-dihydro-7,10-dioxa-2,3,5,11b-tetraaza-cyclopenta[a]anthracene-4-ylamino)-butyl]-carbamic acid isobutylester], the IC50 in test [1] (setting [3]) is at most 200 nM; in test [1] (setting [4]), 110 nM; in test [2] (setting [5]), at most 50 nM; in test [2] (setting [6]), 17 nM.
As to `COc1cc2nc(NCCCCC(=O)NCc3ccco3)c3nnc(C)n3c2cc1OC` [Example 650, 5-(7,8-dimethoxy-1-methyl-[1,2,4]triazolo[4,3-a]quinoxaline-4-ylamino)-pentanoic acid-(furan-2-ylmethyl)-amide], the IC50 was 220 nM in test [1] (setting [4]), at most 50 nM in test [2] (setting [5]) and 18 nM in test [2] (setting [6]).
For `Cc1nnc2c(NCCCCNC(=O)CC(C)C)nc3cc(OC(C)C)ccc3n12` [Example 449, N-[-(7-isopropoxy-1-methyl-[1,2,4]triazolo[4,3-a]quinoxaline-4-ylamino)-butyl]-3-methyl-butyramide] the same measures were 300 nM, at most 50 nM and 27 nM.
In the case of `COc1ccc2c(c1)nc(NCCCCNC(=O)[C@@H](NC(=O)[C@@H](F)C(C)C)C(C)C)c1nnc(C)n12` [Example 321, (S)-2-(S)-fluoro-N-{1-[4-(7-methoxy-1-methyl-[1,2,4]triazolo[4,3-a]quinoxaline-4-ylamino)-butylcarbamoyl]-2-methyl-propyl}-3-methyl-butyramide], the half-maximal inhibitory concentration (IC50) in test [1] (setting [4]) was 553 nM; in test [2] (setting [5]), at most 50 nM; in test [2] (setting [6]), 12 nM.
As for `COc1cc2nc(NCCCCNC(=O)C(C)C)c3nnc(C)n3c2cc1OC` [Example 70, N-[4-(7,8-dimethoxy-1-methyl-[1,2,4]triazolo[4,3-a]quinoxaline-4-ylamino)-butyl]-isobutyramide], the IC50 in test [1] (setting [4]) was 370 nM; in test [2] (setting [5]) it was at most 50 nM.
As for `Cc1nnc2c(NCCCCNC(=O)c3ccccc3Cl)nc3cc(OC(F)(F)F)ccc3n12` [Example 274, 2-chloro-N-[4-(1-methyl-7-trifluoromethoxy-[1,2,4]triazolo[4,3-a]quinoxaline-4-ylamino)-butyl]-benzamide], the half-maximal inhibitory concentration (IC50) is 280 nM in test [1] (setting [4]), at most 50 nM in test [2] (setting [5]) and 27 nM in test [2] (setting [6]).
`COc1ccc2c(c1)nc(NCCCCNC(=O)SC(C)C)c1nnc(C)n12` [Example 336, [4-(7-methoxy-1-methyl-[1,2,4]triazolo[4,3-a]quinoxaline-4-ylamino)-butyl]-thiocarbamic acid-S-isopropyl ester]: the half-inhibitory concentration (IC50) is at most 200 nM in test [1] (setting [3]), 80 nM in test [1] (setting [4]), at most 50 nM in test [2] (setting [5]) and 33 nM in test [2] (setting [6]).
Turning to `CCC(C)CC(=O)NCCCCNc1nc2c(OC)c(OC)c(OC)cc2n2c(C)nnc12` (stereo not drawn) [Example 196, 3-methyl-pentanoic acid-[4-(6,7,8-trimethoxy-1-methyl-[1,2,4]triazolo[4,3-a]quinoxaline-4-ylamino)-butyl]-amide], the values for the IC50 in test [1] (setting [4]), in test [2] (setting [5]) and in test [2] (setting [6]) were 550 nM, at most 50 nM and 32 nM, respectively.
In the same order, the values of `Cc1nnc2c(NCCCCNC(=O)c3ccccc3)nc3ccc(OC(F)(F)F)cc3n12` [Example 267, N-[4-(1-methyl-8-trifluoromethoxy-[1,2,4]triazolo[4,3-a]quinoxaline-4-ylamino)-butyl]-benzamide] are 570 nM, at most 50 nM and 39 nM.
For `COCCOc1ccc2c(c1)nc(NCCCCNC(=O)c1cccc(F)c1)c1nnc(C)n12` [Example 410, 3-fluoro-N-{4-[7-(2-methoxy-ethoxy)-1-methyl-[1,2,4]triazolo[4,3-a]quinoxaline-4-ylamino]-butyl}-benzamide] the same measures were 790 nM, at most 50 nM and 12 nM.
For `COCCOc1ccc2c(c1)nc(NCCCCNC(=O)OCc1ccccc1)c1nnc(C)n12` [Example 373, {4-[7-(2-methoxy-ethoxy)-1-methyl-[1,2,4]triazolo[4,3-a]quinoxaline-4-ylamino]-butyl}-carbamic acid benzylester], the concentration for half-maximal inhibition (IC50) in test [1] (setting [4]) was 420 nM; in test [2] (setting [5]), at most 50 nM; in test [2] (setting [6]) it was 20 nM.
For `COCCOc1ccc2c(c1)nc(NCCCCNC(=O)[C@H](NC(=O)[C@@H](O)C(C)C)C(C)C)c1nnc(C)n12` (stereo in doubt) [Example 403, 2-(S,R)-hydroxy-N-(1-{4-[7-(2-methoxy-ethoxy)-1-methyl-[1,2,4]triazolo[4,3-a]quinoxaline-4-ylamino]-butylcarbamoyl}-2-methyl-propyl)-3-methyl-butyramide] the same measures were 610 nM, at most 10 nM and 10 nM.
Regarding `CCOc1ccc2c(c1)nc(NCCCCNC(=O)OC1CCCC1)c1nnc(C)n12` [Example 445, [4-(7-ethoxy-1-methyl-[1,2,4]triazolo[4,3-a]quinoxaline-4-ylamino)-butyl]-carbamic acid cyclopentylester], the IC50 in test [1] (setting [3]) is at most 200 nM; in test [1] (setting [4]), 100 nM; in test [2] (setting [5]), at most 50 nM; in test [2] (setting [6]), 13 nM.
As for `CCC(C)CC(=O)NCCCCNc1nc2cc(OC)c(OC)cc2n2c(C)nnc12` (stereo not drawn) [Example 73, 3-methyl-pentanoic acid-[4-(7,8-dimethoxy-1-methyl-[1,2,4]triazolo[4,3-a]quinoxaline-4-ylamino)-butyl]-amide], the 50% inhibitory concentration (IC50) in test [1] (setting [3]) was at most 200 nM; in test [1] (setting [4]), 10 nM; in test [2] (setting [5]), at most 50 nM; in test [2] (setting [6]), 15 nM.
Consider `CCc1nnc2c(NCCCCNC(=O)CC(C)C)nc3cc(OC)c(OC)cc3n12` [Example 597, N-[4-(1-ethyl-7,8-dimethoxy-[1,2,4]triazolo[4,3-a]quinoxaline-4-ylamino)-butyl]-3-methyl-butyramide], for which the values for the IC50 in test [1] (setting [4]), in test [2] (setting [5]) and in test [2] (setting [6]) were 230 nM, at most 50 nM and 18 nM, respectively.
As to `COc1ccc2c(c1)nc(NCCCCNC(=O)[C@@H](NS(C)(=O)=O)C(C)C)c1nnc(C)n12` [Example 327, 2-(S)-methanesulfonylamino-N-[4-(7-methoxy-1-methyl-[1,2,4]triazolo[4,3-a]quinoxaline-4-ylamino)-butyl]-3-methyl-butyramide], the IC50 in test [1] (setting [3]) is at most 200 nM; in test [1] (setting [4]), 140 nM; in test [2] (setting [5]) it was at most 50 nM; in test [2] (setting [6]) it was 18 nM.
Turning to `COc1ccc2c(c1)nc(NCCCCNC(=O)[C@H](O)C(C)C)c1nnc(C)n12` [Example 298, 2-(R)-hydroxy-N-[4-(7-methoxy-1-methyl-[1,2,4]triazolo[4,3-a]quinoxaline-4-ylamino)-butyl]-3-methyl-butyramide], the half-inhibitory concentration (IC50) in test [1] (setting [4]) was 270 nM; in test [2] (setting [5]), at most 10 nM; in test [2] (setting [6]), 4 nM.
Turning to `COc1cc2nc(NCCCCC(=O)NCc3ccccc3)c3nnc(C)n3c2cc1OC` [Example 651, 5-(7,8-dimethoxy-1-methyl-[1,2,4]triazolo[4,3-a]quinoxaline-4-ylamino)-pentanoic acid-benzylamide], the half-maximal inhibitory concentration (IC50) was at most 200 nM in test [1] (setting [3]), 120 nM in test [1] (setting [4]), at most 50 nM in test [2] (setting [5]) and 23 nM in test [2] (setting [6]).
For `CCOc1ccc2c(c1)nc(NCCCCNC(=O)CC(C)C)c1nnc(C)n12` [Example 442, N-[4-(7-ethoxy-1-methyl-[1,2,4]triazolo[4,3-a]quinoxaline-4-ylamino)-butyl]-3-methyl-butyramide] the same measures were at most 200 nM, 110 nM, at most 50 nM and 16 nM.
With `COCCOc1ccc2c(c1)nc(NCCCCNC(=O)c1cccc(Cl)c1Cl)c1nnc(C)n12` [Example 413, 2,3-dichloro-N-{4-[7-(2-methoxy-ethoxy)-1-methyl-[1,2,4]triazolo[4,3-a]quinoxaline-4-ylamino]-butyl}-benzamide], the half-inhibitory concentration (IC50) is 190 nM in test [1] (setting [4]) and at most 10 nM in test [2] (setting [5]).
On to `COc1ccc2nc(NCCCCNC(=O)c3ccccc3Cl)c3nnc(C)n3c2c1` [Example 128, 2-chloro-N-[4-(8-methoxy-1-methyl-[1,2,4]triazolo[4,3-a]quinoxaline-4-ylamino)-butyl]-benzamide], for which the IC50 in test [1] (setting [3]) is at most 200 nM; in test [1] (setting [4]), 170 nM; in test [2] (setting [5]) it was at most 50 nM; in test [2] (setting [6]), 33 nM.
For the molecule `CSc1ccc2c(c1)nc(NCCCCNC(=O)[C@@H](F)C(C)C)c1nnc(C)n12` [Example 357, 2-(S)-fluoro-3-methyl-N-[4-(1-methyl-7-methylsulfanyl-[1,2,4]triazolo[4,3-a]quinoxaline-4-ylamino)-butyl]-butyramide], the 50% inhibitory concentration (IC50) is at most 200 nM in test [1] (setting [3]), 44 nM in test [1] (setting [4]) and 62 nM in test [2] (setting [6]).
